Reference: patent US20220119840A1, “CLOSED-ENDED DNA (CEDNA) AND USE IN METHODS OF REDUCING GENE OR NUCLEIC ACID THERAPY RELATED IMMUNE RESPONSE” (Generation Bio Co., priority 2019, published 2022)
Entries after “also recorded” stand apart in the source; their conditions may differ. Read-outs that look alike come from different tables or passages of the source.

Key:
IRF pathway = assay: THP-1 Dual reporter assay, interferon (IRF pathway) induction, Quanti-Luc; assay type: cell-based; conditions: for effect on ceDNA-induced interferon induction: inhibitor pretreatment 2 h, 0.625-2.5 μM; for concentration giving maximal inhibition of interferon induction: doses 0.625, 1.25, 2.5 μM
human TLR9 = molecular target: T1, human TLR9 (Homo sapiens, UniProt Q9NR96); assay: HEK-BLUE.hTLR9 NF-κB/SEAP assay (Quanti-BLUE); assay type: cell-based; conditions: A151 10 μM, 3 h pretreatment, 300 ng ceDNA
T1 construct: host or cells: HEK-293 (HEK-BLUE.hTLR9 cells)
T1 sequence (Q9NR96 26-1032): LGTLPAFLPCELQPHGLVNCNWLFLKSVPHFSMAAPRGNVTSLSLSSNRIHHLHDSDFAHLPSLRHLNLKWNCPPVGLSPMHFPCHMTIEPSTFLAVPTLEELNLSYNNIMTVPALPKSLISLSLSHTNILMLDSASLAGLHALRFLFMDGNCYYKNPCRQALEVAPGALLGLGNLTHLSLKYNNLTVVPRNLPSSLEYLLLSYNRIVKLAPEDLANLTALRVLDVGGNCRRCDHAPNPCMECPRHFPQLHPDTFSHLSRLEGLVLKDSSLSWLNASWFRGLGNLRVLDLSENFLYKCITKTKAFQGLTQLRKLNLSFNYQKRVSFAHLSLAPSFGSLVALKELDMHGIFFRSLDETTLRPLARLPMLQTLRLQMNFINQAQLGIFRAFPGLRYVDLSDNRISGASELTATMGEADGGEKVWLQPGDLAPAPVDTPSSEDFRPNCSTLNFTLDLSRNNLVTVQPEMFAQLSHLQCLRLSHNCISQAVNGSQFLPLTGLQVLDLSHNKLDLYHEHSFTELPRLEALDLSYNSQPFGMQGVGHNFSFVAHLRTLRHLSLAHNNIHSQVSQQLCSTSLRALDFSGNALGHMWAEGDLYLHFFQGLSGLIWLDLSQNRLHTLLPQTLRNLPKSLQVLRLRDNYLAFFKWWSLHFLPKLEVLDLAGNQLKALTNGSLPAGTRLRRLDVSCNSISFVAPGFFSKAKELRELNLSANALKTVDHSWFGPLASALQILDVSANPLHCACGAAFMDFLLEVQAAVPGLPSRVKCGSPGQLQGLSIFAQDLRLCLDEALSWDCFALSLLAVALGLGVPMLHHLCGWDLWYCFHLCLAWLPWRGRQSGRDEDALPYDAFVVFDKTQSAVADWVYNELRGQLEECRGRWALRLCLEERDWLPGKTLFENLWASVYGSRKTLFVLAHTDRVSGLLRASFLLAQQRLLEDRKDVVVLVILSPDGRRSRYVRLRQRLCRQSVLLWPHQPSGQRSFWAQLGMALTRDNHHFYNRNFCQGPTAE

Factor IX deficient mice = assay: Factor IX plasma ELISA, ceDNA encoding Factor IX and A151; assay type: in vivo
[1] = system: IFN-α, IFN-γ, IL-6, IP-10, IL-18, IL-1β, MCP-1, and TNF-alpha; assay: ProcartaPlex multiplex cytokine immunoassay after TTX-9 ceDNA with inflammasome inhibitor pre-treatment; assay type: in vivo; conditions: C57bL mice, inhibitor i.p. 12-16 h and 1 h before 0.5 mg/kg ceDNA (TTX9-LNP) IV

Row | Molecule | effect on ceDNA-induced interferon induction (IRF pathway) | concentration giving maximal inhibition of interferon induction (IRF pathway) [µM] | levels of IL-18 [1] | further results
1 | O=C(NCCCNc1nc(Nc2cccc(NC(=O)N3CCCC3)c2)ncc1I)c1cccs1 [BX795, N-[3-[[5-Iodo-4-[[3-[(2-thienylcarbonyl)amino]propyl]amino]-2-pyrimidinyl]amino]phenyl]-1-pyrrolidinecarboxamide] | similarly reduce this interferon pathway activation; also recorded: abrogation of ceDNA-induced interferon induction | – | – | –
2 | CO[C@H]1C[C@@H]2CC[C@@H](C)[C@@](O)(O2)C(=O)C(=O)N2CCCC[C@H]2C(=O)O[C@H]([C@H](C)C[C@@H]2CC[C@@H](O)[C@H](OC)C2)CC(=O)[C@H](C)/C=C(\C)[C@@H](O)[C@@H](OC)C(=O)[C@H](C)C[C@H](C)/C=C/C=C/C=C/1C [RAPA, rapamycin] | – | – | – | RAPA solubility in the dispersed nanocarrier phase (PLA and PLA-PEG as nanocarrier polymers): 8.4 % wt/wt; RAPA solubility in the dispersed nanocarrier phase (PLGA and PLA-PEG as nanocarrier polymers): 7.2 % wt/wt
3 | A151: oligonucleotide TTAGGGTTAGGGTTAGGGTTAGGG (SEQ ID NO:892) | similarly reduce this interferon pathway activation; also recorded: dose-dependency of interferon induction inhibition; also recorded: concentration-dependent | 2.5 | – | ceDNA-stimulated NF-κB induction in presence of inhibitor (human TLR9): reduced the ceDNA-stimulated NF-κB induction to the same degree as methylation of CpG; also recorded: minimal levels of NF-κB induction; cytokine secretion upon re-dose (Factor IX deficient mice; versus ceDNA vector encoding only Factor IX): less activation of cytokine secretion; expression of factor IX (Factor IX deficient mice; versus ceDNA vector expressing only Factor IX): increased and/or sustained expression of factor IX
4 | AS1411: TLR9 inhibitory oligonucleotide GGTGGTGGTGGTTGTGGTGGTGGTGG, SEQ ID NO: 903 (chemistry not given here) | dose-dependency of interferon induction inhibition; also recorded: concentration-dependent | 2.5 | – | –
5 | CC(C)(O)c1coc(S(=O)(=O)NC(=O)Nc2c3c(cc4c2CCC4)CCC3)c1 [MCC950] | – | – | significant reduction of IFN-γ; also recorded: significantly reduced | levels of IFNγ [1]: significant reduction of IFN-γ; also recorded: significantly reduced; levels of IP-10 [1]: reduction in levels
6 | CCO[C@@H]1OC(=O)C[C@@H]1NC(=O)[C@@H]1CCCN1C(=O)[C@@H](NC(=O)c1ccc(N)c(Cl)c1)C(C)(C)C [VX765, (S)-1-((S)-2-{[1-(4-amino-3-chloro-phenyl)-methanoyl]-amino}-3,3-dimethyl-butanoyl)-pyrrolidine-2-carboxylic acid ((2R,3S)-2-ethoxy-5-oxo-tetrahydro-furan-3-yl)-amide] | – | – | reduced | –
